From PubChem BioAssay AID2060490 (Molecular Pharmacology Branch, DTP, NCI, 2025)

Tested on: 885512-296-R-J2-PDC complex spheroid viability
Experiment: Anticancer human tumor 885512-296-R-J2-PDC patient-derived breast carcinoma cell line growth inhibition [GQUAD]
Conditions: for IC50: curve of first compound; for viability, T/C: stronger effect = lower value; active means viability on the fitted dose curve at most 10% of control; inactive means the rest
How it was run: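 Viability of tumor cells grown as complex spheroids with endothelial and stromal cells, exposed to drug combinations. Top concentration at or near clinical Cmax (else 10 microM), diluted in half-log increments.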

[1] = second compound 0.0316 µM, first compound 0.0316 µM
[2] = second compound 0.0316 µM, first compound 0.1 µM
[3] = second compound 0.0316 µM, first compound 0.316 µM
[4] = second compound 0.0316 µM, first compound 1 µM
[5] = second compound 0.0316 µM, first compound 3.16 µM
[6] = second compound 0.0316 µM, first compound 10 µM
[7] = second compound 0.1 µM, first compound 0.0316 µM
[8] = second compound 0.1 µM, first compound 0.1 µM
[9] = second compound 0.1 µM, first compound 0.316 µM
[10] = second compound 0.1 µM, first compound 1 µM
[11] = second compound 0.1 µM, first compound 3.16 µM
[12] = second compound 0.1 µM, first compound 10 µM
[13] = second compound 0.316 µM, first compound 0.0316 µM
[14] = second compound 0.316 µM, first compound 0.1 µM
[15] = second compound 0.316 µM, first compound 0.316 µM
[16] = second compound 0.316 µM, first compound 1 µM
[17] = second compound 0.316 µM, first compound 3.16 µM
[18] = second compound 0.316 µM, first compound 10 µM
[19] = second compound 1 µM, first compound 0.0316 µM
[20] = second compound 1 µM, first compound 0.1 µM
[21] = second compound 1 µM, first compound 0.316 µM
[22] = second compound 1 µM, first compound 1 µM
[23] = second compound 1 µM, first compound 3.16 µM
[24] = second compound 1 µM, first compound 10 µM
[25] = second compound 3.16 µM, first compound 0.0316 µM
[26] = second compound 3.16 µM, first compound 0.1 µM
[27] = second compound 3.16 µM, first compound 0.316 µM
[28] = second compound 3.16 µM, first compound 1 µM
[29] = second compound 3.16 µM, first compound 3.16 µM
[30] = second compound 3.16 µM, first compound 10 µM
[31] = second compound 10 µM, first compound 0.0316 µM
[32] = second compound 10 µM, first compound 0.1 µM
[33] = second compound 10 µM, first compound 0.316 µM
[34] = second compound 10 µM, first compound 1 µM
[35] = second compound 10 µM, first compound 3.16 µM
[36] = second compound 10 µM, first compound 10 µM
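Further: spheroids exposed to the compounds for one week.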
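Wherever viability, T/C is given: percent of tumor spheroid viability relative to DMSO vehicle control wells.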

C=CC(=O)N1CCN(c2nc(=O)n(-c3c(C)ccnc3C(C)C)c3nc(-c4c(O)cccc4F)c(F)cc23)C(C)C1 (stereo not given) + Cc1cnc(CNC(=O)c2c(=O)c3ccc(N4CCCN(C)CC4)nc3n3c2sc2ccccc23)cn1
> 10000 nM: IC50 (second compound 0.0316 µM) | IC50 (second compound 0.1 µM)
< 31.6 nM: IC50 (second compound 0.316 µM) | IC50 (second compound 1 µM) | IC50 (second compound 3.16 µM) | IC50 (second compound 10 µM)
active: viability, T/C [31] 0.14% | viability, T/C [32] 0.2% | viability, T/C [33] 0.24% | viability, T/C [34] 0.2% | viability, T/C [35] 0.2% | viability, T/C [36] 1.55%
inactive: viability, T/C [1] 90.5% | viability, T/C [2] 81.3% | viability, T/C [3] 107% | viability, T/C [4] 105% | viability, T/C [5] 99.1% | viability, T/C [6] 76.9% | viability, T/C [7] 60.9% | viability, T/C [8] 66% | viability, T/C [9] 68.5% | viability, T/C [10] 67.5% | viability, T/C [11] 79.5% | viability, T/C [12] 47.3% | viability, T/C [13] 35.9% | viability, T/C [14] 29.3% | viability, T/C [15] 33.8% | viability, T/C [16] 31.1% | viability, T/C [17] 33.6% | viability, T/C [18] 24% | viability, T/C [19] 23.4% | viability, T/C [20] 30.9% | viability, T/C [21] 33.2% | viability, T/C [22] 24.1% | viability, T/C [23] 22.6% | viability, T/C [24] 28.3% | viability, T/C [25] 34.5% | viability, T/C [26] 31.4% | viability, T/C [27] 19.4% | viability, T/C [28] 27% | viability, T/C [29] 29.8% | viability, T/C [30] 32.3%

COc1cccc2c1C(=O)c1c(O)c3c(c(O)c1C2=O)CC(O)(C(=O)CO)CC3OC1CC(N)C(O)C(C)O1 (stereo not given) + CN(C)c1ccc(Nc2c3ccc(NC(=O)CCN4CCCC4)cc3nc3cc(NC(=O)CCN4CCCC4)ccc23)cc1
72.6 nM: IC50 (second compound 0.1 µM)
76.6 nM: IC50 (second compound 1 µM)
active: viability, T/C [4] 6.89% | viability, T/C [5] 0.38% | viability, T/C [6] 3.01% | viability, T/C [10] 8.24% | viability, T/C [11] 1.04% | viability, T/C [12] 2.8% | viability, T/C [16] 7.15% | viability, T/C [17] 1.27% | viability, T/C [18] 3.37% | viability, T/C [22] 8.92% | viability, T/C [23] 0.75% | viability, T/C [24] 3.6% | viability, T/C [28] 8.3% | viability, T/C [29] 3.01% | viability, T/C [30] 2.07% | viability, T/C [34] 5.9% | viability, T/C [35] 0.9% | viability, T/C [36] 1.52%
69.7 nM: IC50 (second compound 0.0316 µM)
< 31.6 nM: IC50 (second compound 10 µM)
70.6 nM: IC50 (second compound 3.16 µM)
inactive: viability, T/C [1] 83.5% | viability, T/C [2] 29.8% | viability, T/C [3] 23.5% | viability, T/C [7] 90.9% | viability, T/C [8] 31.5% | viability, T/C [9] 18.5% | viability, T/C [13] 95.3% | viability, T/C [14] 35.2% | viability, T/C [15] 20.9% | viability, T/C [19] 95% | viability, T/C [20] 30% | viability, T/C [21] 26.1% | viability, T/C [25] 81.5% | viability, T/C [26] 34.8% | viability, T/C [27] 18.1% | viability, T/C [31] 26.5% | viability, T/C [32] 20% | viability, T/C [33] 9.35%
78.8 nM: IC50 (second compound 0.316 µM)

CC1COCCN1c1cc(C2(O)CC3CCC(C2)O3)c2cnn(-c3ccn[nH]3)c2n1 (stereo not given) + Cc1[nH]c2ccc(F)cc2c1-c1nc2c3cccnc3c3ncccc3c2[nH]1
active: viability, T/C [2] 5.25% | viability, T/C [3] 3.32% | viability, T/C [4] 4.26% | viability, T/C [5] 6.56% | viability, T/C [6] 9.72% | viability, T/C [8] 4.51% | viability, T/C [9] 2.65% | viability, T/C [10] 4.14% | viability, T/C [11] 6.29% | viability, T/C [12] 8.64% | viability, T/C [14] 3.01% | viability, T/C [15] 3.13% | viability, T/C [16] 3.89% | viability, T/C [17] 7.17% | viability, T/C [18] 8.72% | viability, T/C [19] 3.34% | viability, T/C [20] 3.2% | viability, T/C [21] 2.99% | viability, T/C [22] 3.85% | viability, T/C [23] 7.13% | viability, T/C [24] 4.46% | viability, T/C [25] 1.99% | viability, T/C [26] 1.52% | viability, T/C [27] 2.56% | viability, T/C [28] 3.64% | viability, T/C [29] 4.56% | viability, T/C [30] 3.61% | viability, T/C [31] 1.09% | viability, T/C [32] 1.19% | viability, T/C [33] 1.76% | viability, T/C [34] 2.85% | viability, T/C [35] 4.02% | viability, T/C [36] 3.55%
inactive: viability, T/C [1] 34.7% | viability, T/C [7] 29.1% | viability, T/C [13] 14.5%
< 31.6 nM: IC50 (second compound 0.0316 µM) | IC50 (second compound 0.1 µM) | IC50 (second compound 0.316 µM) | IC50 (second compound 1 µM) | IC50 (second compound 3.16 µM) | IC50 (second compound 10 µM)

O=C(c1cc(Cc2n[nH]c(=O)c3ccccc23)ccc1F)N1CCN(C(=O)C2CC2)CC1 + CN(C)c1ccc(Nc2c3ccc(NC(=O)CCN4CCCC4)cc3nc3cc(NC(=O)CCN4CCCC4)ccc23)cc1
7310 nM: IC50 (second compound 1 µM)
7620 nM: IC50 (second compound 0.0316 µM)
5340 nM: IC50 (second compound 3.16 µM)
7330 nM: IC50 (second compound 0.316 µM)
inactive: viability, T/C [1] 105% | viability, T/C [2] 103% | viability, T/C [3] 132% | viability, T/C [4] 139% | viability, T/C [5] 117% | viability, T/C [6] 29.2% | viability, T/C [7] 102% | viability, T/C [8] 94.9% | viability, T/C [9] 119% | viability, T/C [10] 145% | viability, T/C [11] 120% | viability, T/C [12] 33% | viability, T/C [13] 93.7% | viability, T/C [14] 110% | viability, T/C [15] 118% | viability, T/C [16] 131% | viability, T/C [17] 123% | viability, T/C [18] 25.7% | viability, T/C [19] 85.2% | viability, T/C [20] 102% | viability, T/C [21] 116% | viability, T/C [22] 152% | viability, T/C [23] 105% | viability, T/C [24] 29.1% | viability, T/C [25] 95% | viability, T/C [26] 107% | viability, T/C [27] 125% | viability, T/C [28] 107% | viability, T/C [29] 67.8% | viability, T/C [30] 28.7% | viability, T/C [31] 20.7% | viability, T/C [32] 23.3% | viability, T/C [33] 20.1% | viability, T/C [34] 19.2% | viability, T/C [35] 20.8% | viability, T/C [36] 15.8%
< 31.6 nM: IC50 (second compound 10 µM)
7900 nM: IC50 (second compound 0.1 µM)

C=CCn1c(=O)c2cnc(Nc3ccc(N4CCN(C)CC4)cc3)nc2n1-c1cccc(C(C)(C)O)n1 + CN(C)c1ccc(Nc2c3ccc(NC(=O)CCN4CCCC4)cc3nc3cc(NC(=O)CCN4CCCC4)ccc23)cc1
341 nM: IC50 (second compound 0.316 µM)
active: viability, T/C [4] 8.77% | viability, T/C [5] 3.39% | viability, T/C [6] 2.43% | viability, T/C [11] 3.11% | viability, T/C [12] 2.74% | viability, T/C [17] 2.73% | viability, T/C [18] 2.28% | viability, T/C [22] 8.23% | viability, T/C [23] 2.54% | viability, T/C [24] 2.76% | viability, T/C [28] 8.19% | viability, T/C [29] 2.51% | viability, T/C [30] 2.74% | viability, T/C [34] 5.57% | viability, T/C [35] 1.22% | viability, T/C [36] 1.46%
< 31.6 nM: IC50 (second compound 10 µM)
358 nM: IC50 (second compound 3.16 µM)
311 nM: IC50 (second compound 0.1 µM)
inactive: viability, T/C [1] 104% | viability, T/C [2] 102% | viability, T/C [3] 62.7% | viability, T/C [7] 120% | viability, T/C [8] 98.9% | viability, T/C [9] 51.7% | viability, T/C [10] 7.71% | viability, T/C [13] 122% | viability, T/C [14] 93.5% | viability, T/C [15] 58% | viability, T/C [16] 9.28% | viability, T/C [19] 102% | viability, T/C [20] 103% | viability, T/C [21] 70.5% | viability, T/C [25] 105% | viability, T/C [26] 98.3% | viability, T/C [27] 55.2% | viability, T/C [31] 22% | viability, T/C [32] 22.4% | viability, T/C [33] 12.2%
415 nM: IC50 (second compound 0.0316 µM)
462 nM: IC50 (second compound 1 µM)
